Test results: paper PMC7004070 (Chemmedchem, 2019)
“Also recorded” adds a separate entry of the source.

Experiments:
CysLT1R = settings: read-out: CysLT1R Ki; cited from earlier work
HepG2 cells = assay: WST-1 assay in HepG2 cells; format: cell-based; settings: n=4; for concentration with anti-proliferative / toxic effect: WST-1 assay, HepG2 cells, 24 h; for cytotoxicity compared to 3: WST-1 assay in HepG2 cells
human full-length FXR = target: T1, human full-length FXR (Homo sapiens, UniProt Q96RI1); assay: full-length FXR-BSEP reporter gene assay; format: cell-based; settings: for Emax: HeLa, read-out: FXR max. rel. act.; for FXR EC50: full-length FXR-BSEP reporter gene assay, HeLa cells, mean±S.E.M., n≥3, inactive = no significant activation up to 30 μM
T1 sequence (Q96RI1 1-486): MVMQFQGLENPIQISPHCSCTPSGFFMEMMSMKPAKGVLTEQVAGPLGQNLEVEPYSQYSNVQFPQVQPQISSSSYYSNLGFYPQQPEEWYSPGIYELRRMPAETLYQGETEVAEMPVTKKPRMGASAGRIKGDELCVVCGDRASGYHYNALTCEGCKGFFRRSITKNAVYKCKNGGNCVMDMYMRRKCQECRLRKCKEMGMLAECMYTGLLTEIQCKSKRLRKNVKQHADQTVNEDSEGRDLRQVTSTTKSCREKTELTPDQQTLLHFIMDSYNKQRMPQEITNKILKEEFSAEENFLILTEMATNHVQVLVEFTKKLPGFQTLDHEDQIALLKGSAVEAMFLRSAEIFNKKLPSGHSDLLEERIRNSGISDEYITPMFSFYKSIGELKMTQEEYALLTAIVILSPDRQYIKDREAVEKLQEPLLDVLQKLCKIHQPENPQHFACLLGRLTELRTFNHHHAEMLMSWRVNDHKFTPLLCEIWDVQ
T1 sequence (P19793 1-462 partner): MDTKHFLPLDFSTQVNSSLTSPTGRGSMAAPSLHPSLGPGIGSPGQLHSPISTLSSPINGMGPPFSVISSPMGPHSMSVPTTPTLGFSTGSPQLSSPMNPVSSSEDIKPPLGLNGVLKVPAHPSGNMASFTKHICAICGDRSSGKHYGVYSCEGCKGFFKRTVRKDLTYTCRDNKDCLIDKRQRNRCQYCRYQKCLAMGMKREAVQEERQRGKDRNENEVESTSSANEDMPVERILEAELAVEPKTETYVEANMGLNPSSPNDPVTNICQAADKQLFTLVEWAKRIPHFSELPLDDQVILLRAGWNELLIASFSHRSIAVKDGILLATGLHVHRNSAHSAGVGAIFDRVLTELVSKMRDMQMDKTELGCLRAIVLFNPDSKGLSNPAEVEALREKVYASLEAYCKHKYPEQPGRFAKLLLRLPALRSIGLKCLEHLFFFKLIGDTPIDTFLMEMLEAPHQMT

recombinant human sEH = target: T2, recombinant human sEH (Homo sapiens, UniProt P34913); assay: sEH activity assay on recombinant protein; format: biochemical
T2 sequence (P34913 1-555): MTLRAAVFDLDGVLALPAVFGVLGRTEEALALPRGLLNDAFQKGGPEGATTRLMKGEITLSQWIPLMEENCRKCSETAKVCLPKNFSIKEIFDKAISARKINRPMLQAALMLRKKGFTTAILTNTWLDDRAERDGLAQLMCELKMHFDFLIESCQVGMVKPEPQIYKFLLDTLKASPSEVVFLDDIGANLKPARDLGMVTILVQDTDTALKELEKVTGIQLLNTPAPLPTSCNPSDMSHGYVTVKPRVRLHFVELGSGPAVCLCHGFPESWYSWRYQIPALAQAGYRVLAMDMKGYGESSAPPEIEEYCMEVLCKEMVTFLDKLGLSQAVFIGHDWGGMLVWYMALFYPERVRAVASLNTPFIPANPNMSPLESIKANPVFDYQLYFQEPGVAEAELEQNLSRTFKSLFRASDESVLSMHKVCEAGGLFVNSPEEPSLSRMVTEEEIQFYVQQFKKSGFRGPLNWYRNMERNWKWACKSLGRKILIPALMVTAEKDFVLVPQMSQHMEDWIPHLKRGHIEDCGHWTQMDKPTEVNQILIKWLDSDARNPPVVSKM

[1] = test system: FXR regulated genes (OSTα, SHP, CYP7A1) in HepG2 cells; format: cell-based; settings: 10 μM, 12 h, qPCR, n=3
human CysLT1R = target: T3, human CysLT1R (Homo sapiens, UniProt Q9Y271); assay: CysLT1R antagonism assay, cell-based
T3 sequence (Q9Y271 1-337): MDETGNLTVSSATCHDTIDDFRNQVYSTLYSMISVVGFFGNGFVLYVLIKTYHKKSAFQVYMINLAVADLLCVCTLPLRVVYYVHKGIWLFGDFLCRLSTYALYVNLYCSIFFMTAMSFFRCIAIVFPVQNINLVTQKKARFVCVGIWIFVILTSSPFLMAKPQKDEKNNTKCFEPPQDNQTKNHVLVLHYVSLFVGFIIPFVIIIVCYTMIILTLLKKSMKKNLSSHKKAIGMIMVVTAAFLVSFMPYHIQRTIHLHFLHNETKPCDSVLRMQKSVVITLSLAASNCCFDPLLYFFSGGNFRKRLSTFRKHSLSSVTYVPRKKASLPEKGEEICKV

[2] = target: T4, sEH in HepG2 cell homogenate (Homo sapiens, UniProt P34913); assay: Cellular sEH assay: conversion of; format: cell-based; settings: 10 μM; HepG2 homogenates; (±)14(15)-EET-d11; n≥4
T4 sequence (P34913 1-555): T2 sequence (P34913 1-555)

[3] = test system: nuclear receptors related to FXR (PPARα, PPARγ, PPARδ, LXRα, LXRβ, RXRα, RARα, CAR); assay: Gal4 hybrid reporter gene assays for nuclear receptors related to FXR; format: cell-based, human; settings: HEK293T, mean, n=2
RARα = target: T5, RARα (Homo sapiens, UniProt P10276); assay: Gal4 hybrid reporter gene assay for RARα in HEK293T cells; format: cell-based; settings: mean, n=2
T5 sequence (P10276 183-417 limits assumed): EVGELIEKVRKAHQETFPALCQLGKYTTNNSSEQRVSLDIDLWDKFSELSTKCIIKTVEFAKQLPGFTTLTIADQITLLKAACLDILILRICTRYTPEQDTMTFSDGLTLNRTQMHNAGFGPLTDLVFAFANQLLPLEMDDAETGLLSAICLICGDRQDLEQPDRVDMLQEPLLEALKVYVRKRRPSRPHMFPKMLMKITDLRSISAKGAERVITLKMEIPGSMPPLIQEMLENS

Structure (SMILES)	IC50 (recombinant human sEH) [µM]	EC50 (human full-length FXR) [µM]	Emax (human full-length FXR) [%]	also measured
COc1cc(C(=O)NS(=O)(=O)c2ccccc2C)ccc1Cc1cn(C)c2ccc(NC(=O)OC3CCCC3)cc12 [compound 3, Zafirlukast, reference compound]				Ki (CysLT1R): 0.0003 µM; concentration with anti-proliferative / toxic effect (HepG2 cells): ≥ 1 µM
COc1cc(C(=O)O)ccc1Cc1cn(C)c2ccc(NC(=O)c3c(-c4c(Cl)cccc4Cl)noc3C(C)C)cc12 [compound 6, 4‐((5‐(3‐(2,6‐Dichlorophenyl)‐5‐isopropylisoxazole‐4‐carboxamido)‐1‐methyl‐1H‐indol‐3‐yl)methyl)‐3‐methoxybenzoic acid]	3.3 ± 0.6			FXR EC50 (human full-length FXR): inactive
COc1cc(C(=O)O)ccc1Cc1cn(C)c2ccc(NC(=O)c3ccncc3)cc12 [compound 7, 4‐((5‐(Isonicotinamido)‐1‐methyl‐1H‐indol‐3‐yl)methyl)‐3‐methoxybenzoic acid]	> 100	0.91 ± 0.06	15	
COc1ccc(C(=O)O)cc1Cc1cn(C)c2ccc(NC(=O)c3ccc(C(C)(C)C)cc3)cc12 [compound 9, 3‐((5‐(4‐tert‐Butylbenzamido)‐1‐methyl‐1H‐indol‐3‐yl)methyl)‐4‐methoxybenzoic acid]	86 ± 10			FXR EC50 (human full-length FXR): inactive
COc1cc(C(=O)O)ccc1Cc1cn(C(C)C)c2ccc(NC(=O)c3ccc(C(C)(C)C)cc3)cc12 [compound 11, 4‐((5‐(4‐(tert‐Butyl)benzamido)‐1‐isopropyl‐1H‐indol‐3‐yl)methyl)‐3‐methoxybenzoic acid]	> 100	2.3 ± 0.1	11	
COc1cc(C(=O)O)ccc1Cn1ccc2ccc(NC(=O)c3ccc(C(C)(C)C)cc3)cc21 [compound 13, 4‐((6‐(4‐(tert‐Butyl)benzamido)‐1H‐indol‐1‐yl)methyl)‐3‐methoxybenzoic acid]			15	OSTα expression [1]: induced expression; SHP expression [1]: induced expression; IC50 (human CysLT1R): ~1 µM; conversion of EET to DHET (cellular sEH inhibition) [2]: blocked EET conversion to DHETs; selectivity over nuclear receptors related to FXR [3]: selective; also recorded: high selectivity; higher potency on FXR compared to 16 (human full-length FXR; 13 compared to 16): approx. 10 fold; improvement of EC50 value on FXR compared to 3 (human full-length FXR; compared to 3): 15 fold; cytotoxicity compared to 3 (HepG2 cells): reduced cytotoxicity; also recorded: strongly reduced toxicity; concentration with anti-proliferative / toxic effect (HepG2 cells): > 10 µM
CC(C)(C)c1ccc(C(=O)Nc2ccc3ccn(Cc4cccc(C(=O)O)c4)c3c2)cc1 [compound 15, 3‐((6‐(4‐(tert‐Butyl)benzamido)‐1H‐indol‐1‐yl)methyl)benzoic acid]	4.3 ± 0.4			FXR EC50 (human full-length FXR): inactive
CC(C)(C)c1ccc(C(=O)Nc2ccc3ccn(Cc4ccc(C(=O)O)cc4)c3c2)cc1 [compound 16, 4‐((6‐(4‐(tert‐Butyl)benzamido)‐1H‐indol‐1‐yl)methyl)benzoic acid]			24	OSTα expression [1]: induced expression; SHP expression [1]: induced expression; IC50 (human CysLT1R): > 1 µM; conversion of EET to DHET (cellular sEH inhibition) [2]: blocked EET conversion to DHETs; selectivity over nuclear receptors related to FXR [3]: selective; also recorded: high selectivity; cytotoxicity compared to 3 (HepG2 cells): reduced cytotoxicity; also recorded: strongly reduced toxicity; concentration with anti-proliferative / toxic effect (HepG2 cells): > 10 µM; RARα activation (RARα): considerable RARα agonism; also recorded: marked RARα activation

Continued, in another order:

IC50 (recombinant human sEH) [µM]	Structure (SMILES)	EC50 (human full-length FXR) [µM]	Emax (human full-length FXR) [%]	also measured
> 30	COc1cc(C(=O)O)ccc1Cc1cn(C)c2ccc(NC(=O)c3ccc(C(C)(C)C)cc3)cc12 [compound 5, 4‐((5‐(4‐(tert‐Butyl)benzamido)‐1‐methyl‐1H‐indol‐3‐yl)methyl)‐3‐methoxybenzoic acid]	0.6 ± 0.2	29	
12 ± 1	Cn1cc(Cc2ccc(C(=O)O)cc2)c2cc(NC(=O)c3ccc(C(C)(C)C)cc3)ccc21 [compound 8, 4‐((5‐(4‐(tert‐Butyl)benzamido)‐1‐methyl‐1H‐indol‐3‐yl)methyl)benzoic acid]	> 10		
22 ± 3	Cn1cc(Cc2cccc(C(=O)O)c2)c2cc(NC(=O)c3ccc(C(C)(C)C)cc3)ccc21 [compound 10, 3‐((5‐(4‐(tert‐Butyl)benzamido)‐1‐methyl‐1H‐indol‐3‐yl)methyl)benzoic acid]	1.19 ± 0.08	18	
> 100	COc1cc(C(=O)O)ccc1Cn1ccc2cc(NC(=O)c3ccc(C(C)(C)C)cc3)ccc21 [compound 12, 4‐((5‐(4‐(tert‐Butyl)benzamido)‐1H‐indol‐1‐yl)methyl)‐3‐methoxybenzoic acid]	9.2 ± 0.8	23	
18 ± 5	COc1cc(C(=O)O)ccc1Cn1cnc2ccc(NC(=O)c3ccc(C(C)(C)C)cc3)cc21 [compound 14, 4‐((6‐(4‐(tert‐Butyl)benzamido)‐1H‐benzoimidazol‐1‐yl)methyl)‐3‐methoxybenzoic acid]	5.3 ± 0.4	26	decrease of activity on sEH compared to 13 (recombinant human sEH; benzimidazole 14 vs indole 13): approx. 10 fold
